The values that follow are results of earlier work, collected in patent US10179172B2, “Liquid pharmaceutical formulations for injection comprising yellow 5 or orange G and uses thereof” (EAGLE BIOLOGICS, INC., priority 2013, dated 2019).

Values joined by “and” are separate entries in the source; they are usually repeats but may differ in a detail not shown here. Identical values can stand only once.

The subject of data set [1] is respiratory syncytial virus. The note with it: two Phase III clinical trials, pediatric population.
For data set [2] the following is noted: long-term clinical outcomes.

As to “palivizumab: humanized mAb directed against an epitope in the A antigenic site of the F protein of respiratory syncytial virus”, the “Reduction of the risk of hospitalization due to respiratory syncytial virus infection” value in data set [1] is 55% and 45%.
For the substance “vedolizumab: mAb being developed by Millennium Pharmaceuticals for ulcerative colitis and Crohn's disease”, the “Patients achieving clinical remission” value in data set [2] is on record as around 60%.
